This assay concerns 885512-296-R-J2-PDC complex spheroid viability. Kind of assay: Anticancer human tumor 885512-296-R-J2-PDC patient-derived breast carcinoma cell line growth inhibition [GQUAD]. Conditions: for viability, T/C: stronger effect = lower value. An excerpt: DNA G-quadruplex Stabilizer Agents in Combinations in Complex Spheroids
A high-throughput screen of multi-cell type tumor spheroids was designed to identify active combinations of DNA G-quadruplex stabilizer agents and targeted small molecules. Complex spheroids include a stromal component modeled by human endothelial cells (HUVEC) and fibroblasts modeled by human mesenchymal stem cells (MSCs). The concentration ranges selected for each drug and investigational agent were based upon clinically achievable concentrations if the clinical Cmax of the agent was known.
Compounds. The drugs and investigational agents: pidnarulex (CX-5461; NSC782164), APTO-253 (NSC789042), BRACO-19 (NSC847499), peposertib (NSC802822), ceralasertib (NSC780249), elimusertib (NSC800525), camonsertib (NSC841442), AZD-1390 (NSC803789), olaparib (NSC753686), talazoparib (NSC767125), ART-558 (NSC835418), sotorasib (NSC818433), MRTX-1133 (NSC836407), SN-38 (NSC673596), topotecan (NSC609699), etoposide (NSC141540), doxorubicin (NSC123127), gemcitabine (NSC613327), 5-fluorouracil (NSC19893), paclitaxel (NSC125973), vemurafenib (NSC761431), panobinostat (NSC761190), R-306465 (JNJ-16241199; NSC773264), adavosertib (NSC754352), TP-3654 (NSC805149), carboplatin (NSC241240), KSQ-4279 (NSC840948), and staurosporine (NSC755774) were obtained from the National Cancer Institute (NCI) Developmental Therapeutics Program Chemical Repository (34). The FDA-approved anticancer drug set is available from the NCI Developmental Therapeutics Program. […] The stock solutions were prepared in dimethyl sulfoxide (DMSO, Sigma-Aldrich, St. Louis, MO, cat. D2650) at 800-fold the tested concentration and stored at -70 degrees C prior to their use. All drugs and investigational agents were tested over a range starting from a high concentration at or near the clinical Cmax and decreasing in half-log increments. If the clinical Cmax for an agent had not been determined, the highest concentration tested was 10 microM.
2.3 Cell Culture. All cells were maintained in an incubator at 37 degrees C and 5% CO2 with 95% humidity. The PDC lines were cultured according to standard operating procedures established by the NCI PDMR. All PDCs were thawed and cultured in Matrigel-coated flasks prepared with a working solution of 1X Ham's F-12 nutrient mix, without supplementation (Invitrogen, cat. 11765054), 100 U/mL penicillin-streptomycin (Invitrogen, cat. 15140122), and 2.5% Matrigel (Corning Inc., cat. 354248) for the first three passages. The 857933-349-R-J2-PDC line was cultured in 6C/Colon 1B media, which includes advanced DMEM/F-12 (Thermo Fisher Scientific, cat. 12634028), 10 mM HEPES (Thermo Fisher Scientific, cat. 15630080), 1X GlutaMAX supplement (Thermo Fisher Scientific, cat. 35050061), 0.1 mg/mL primocin (InvivoGen, cat. ant-pm-2), 10% defined fetal bovine serum, heat inactivated (HyClone Laboratories Inc., cat. SH30070.03HI), 50% L-WRN conditioned media (ATCC, cat. CRL-3276), 1.25 mM N-Acetyl-L-cysteine (Sigma-Aldrich, cat. A9165), 10 mM nicotinamide (Sigma-Aldrich, cat. N0636), 1X B-27 supplement (Thermo Fisher Scientific, cat. 17504044), 1X N-2 supplement (Thermo Fisher Scientific, cat. 17502048), 10 microM Y-27632 dihydrochloride (Tocris Bioscience, cat. 1254), and 50 ng/mL human EGF recombinant protein (Thermo Fisher Scientific, cat. PHG0311). The 485176-168-R4-J1-PDC line was cultured in Panc media, which includes all 6C/Colon 1B media components plus 100 ng/mL human FGF-10 (Thermo Fisher Scientific, cat. 100-26), 500 nM SB-431542 (Selleckchem, cat. S1067), and gastrin (Tocris, cat. 3006).
[…]

The mark [1] stands for this setting: compound alone, run of 04/16/2024.

Consider ten molecules from PubChem BioAssay AID2060490 (Molecular Pharmacology Branch, DTP, NCI, 2025).

Broadly, the viability, T/C is the result in the treated group divided by that in the control group, in per cent. The IC50 is the point on the concentration scale where inhibition reaches its midpoint.

Structures are written as SMILES. Several values for one entry are separate records, joined by “and”; a condition that tells them apart may be missing. Identical values can stand only once.
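Also: spheroids exposed to the compounds for one week.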
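For viability, T/C in this document: percent of tumor spheroid viability relative to DMSO vehicle control wells.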

With `COc1ccc([C@@H](O)c2cc(-c3ncnc4cc(N5CCOCC5)ccc34)c(F)cc2Cl)nn1`, the viability, T/C (compound 0.0316 µM) was 110% and 101% and 96%; the viability, T/C (compound 0.1 µM) is 103% and 106% and 92.4%; the viability, T/C (compound 0.316 µM) was 101% and 89.6% and 92.7%; the viability, T/C (compound 1 µM) is 97.4% and 79.5% and 91.5%; the viability, T/C (compound 3.16 µM) is 79.2% and 89.1% and 88.5%; the viability, T/C (compound 10 µM) was 64.3% and 53.6% and 58.4%. In addition, the IC50 (curve of compound) is over 10000 nM.

For `COc1cccc2c1C(=O)c1c(O)c3c(c(O)c1C2=O)CC(O)(C(=O)CO)CC3OC1CC(N)C(O)C(C)O1` (configuration not stated), the viability, T/C was 87.2% and 85.7% and 88.6% (compound 0.0316 µM); 44.6% and 31.4% and 27.5% (compound 0.1 µM); 23.1% and 20.1% and 23.4% (compound 0.316 µM); 5.91% and 6.03% and 8.79% (compound 1 µM); 0.33% and 0.51% and 0.46% (compound 3.16 µM); 2.28% and 1.5% and 4.09% (compound 10 µM). For the same molecule, the 50% inhibitory concentration (IC50) (curve of compound) was 88.8 nM and 70.9 nM and 70 nM.

Regarding `Cc1[nH]c2ccc(F)cc2c1-c1nc2c3cccnc3c3ncccc3c2[nH]1`, the viability, T/C was 99.9% [middle of 12 runs] (compound 0.0316 µM); 101% [middle of 12 runs] (compound 0.1 µM); 97.9% [middle of 12 runs] (compound 0.316 µM); 76.9% [middle of 12 runs] (compound 1 µM); 3.15% [middle of 12 runs] (compound 10 µM). Further, the IC50 reads like this: under setting [1], 1.75 µM [middle of 8 runs]; (compound alone, run of 04/22/2024) 1.54 µM [middle of 4 runs].

With `Cc1[nH]c2ccccc2c1CCNCc1ccc(/C=C/C(=O)NO)cc1`, the viability, T/C (compound 0.000999 µM) was 108% and 90.8% and 92.3%; the viability, T/C (compound 0.00316 µM) was 93.8% and 86.2% and 86.1%; the viability, T/C (compound 0.00999 µM) was 96.1% and 71.2% and 73.6%; the viability, T/C (compound 0.0316 µM) is 112% and 42% and 57.7%; the viability, T/C (compound 0.0999 µM) is 94.9% and 25.6% and 28.9%.

Consider `Cc1cccc(N(C)C(=O)C2C(O)CCN2c2nc(C)cc(C(F)(F)F)c2C#N)c1` (configuration not stated), for which the viability, T/C (compound 0.0316 µM) is 104% and 98.3% and 102%; the viability, T/C (compound 0.1 µM) is 100% and 104% (2×); the viability, T/C (compound 0.316 µM) was 91.8% and 93.8% and 104%; the viability, T/C (compound 1 µM) was 97.2% and 103% and 105%; the viability, T/C (compound 3.16 µM) is 97.8% and 113% and 97.5%; the viability, T/C (compound 10 µM) is 85% and 79.4% and 86.6%. Moreover, where the note is “curve of compound”, the IC50 is over 10000 nM.

Take `Cc1cnc(CNC(=O)c2c(=O)c3ccc(N4CCCN(C)CC4)nc3n3c2sc2ccccc23)cn1`: the viability, T/C was 86.1% [middle of 12 runs] (compound 0.0316 µM); 28.4% [middle of 12 runs] (compound 0.316 µM); 26.3% [middle of 12 runs] (compound 1 µM); 27% [middle of 12 runs] (compound 3.16 µM); 0.17% [middle of 9 runs] (compound 10 µM). The IC50 under setting [1] is 166 nM [middle of 12 runs].

As for `Cn1ncnc1[C@H]1c2n[nH]c(=O)c3cc(F)cc(c23)N[C@@H]1c1ccc(F)cc1`, the viability, T/C (compound 0.000999 µM) is 100% and 96.8% and 93.9%; the viability, T/C (compound 0.00316 µM) is 93.9% and 87.6% and 102%; the viability, T/C (compound 0.00999 µM) was 80.8% and 90.4% and 90%; the viability, T/C (compound 0.0316 µM) is 81.4% and 84.2% and 82.3%; the viability, T/C (compound 0.0999 µM) was 75.4% and 66.1% and 67.8%; the viability, T/C (compound 0.316 µM) is 50.8% and 45.5% and 53.5%. For the same molecule, the concentration for half-maximal inhibition (IC50) (curve of compound) was > 316 nM and 246 nM.

Regarding `Nc1ccn(C2OC(CO)C(O)C2(F)F)c(=O)n1` (configuration not stated), the viability, T/C was 14.6% and 8.23% and 13.1% (compound 0.0316 µM); 4.17% and 2.77% and 2.12% (compound 0.1 µM); 2.96% and 2.39% and 3.6% (compound 0.316 µM); 3.23% and 3.33% and 3.21% (compound 1 µM); 4.11% and 2.94% and 3.73% (compound 3.16 µM); 3.17% and 3.4% and 3.47% (compound 10 µM). Besides, where the note is “curve of compound”, the IC50 was under 31.6 nM.

Turning to `O=C(c1cc(Cc2n[nH]c(=O)c3ccccc23)ccc1F)N1CCN(C(=O)C2CC2)CC1`, the viability, T/C was 99.8% and 85.3% and 97.1% (compound 0.0316 µM); 117% and 107% and 96.9% (compound 0.1 µM); 112% and 116% and 95.1% (compound 0.316 µM); 152% and 127% and 126% (compound 1 µM); 144% and 122% (2×) (compound 3.16 µM); 41.6% and 24.8% and 33% (compound 10 µM). Besides, for the setting “curve of compound”, the IC50 was 8900 nM and 7180 nM and 7700 nM.

Consider `O=c1[nH]cc(F)c(=O)[nH]1`, for which the viability, T/C reads like this: (compound 0.0316 µM) 94.2% and 107% and 96.5%; (compound 0.1 µM) 102% and 97.5% and 105%; (compound 0.316 µM) 113% and 107% and 99.3%; (compound 1 µM) 123% and 89.3% and 95.8%; (compound 3.16 µM) 71.7% and 58.4% and 66%; (compound 10 µM) 52.8% and 55% and 55.4%. Further, the IC50 (curve of compound) is over 10000 nM.
